77 sequences from the supplement of paper PMC11208160 can be followed below.
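Further: IS621 recombinase and bridge RNA in Escherichia coli cells.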

The nature of this series: recombinant barcode read abundance after kanamycin selection (control-corrected) (log10(CPM+1)); higher = more efficient recombination; sequences stand for … in AGTGCAGAGAAAATCGGCCAGTTTTCTCTGCCTGCAGTCCGCATGCCGT…AGATTTATGCAGCGGACTGCCTTTCTCCCAAAGTGATAAACCGGACAGTATCATGGACCGGTTTTCCCGGTAATCCGTATTTGCAAGGTTGGTTTCACT; site = the 11-nt target. The method in brief:
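The screen was pooled in E. coli and paired targets with IS621 bridge RNA target-binding loops. Recombination efficiency is taken from barcode counts per million at recombinant junctions, averaged and adjusted against the control. Values, in the form log10(CPM+1), come from duplicate plating on chloramphenicol/ampicillin LB agar or on chloramphenicol/ampicillin/kanamycin with 0.1 mM IPTG.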
In the case of “GACTCTACTTGGGTTCTAACCTGTTGCTT (site GATTCTACTAA)”, the “recombinant barcode read abundance (log10)” value was found to be 0.0521.
As for “GACTCTCCTTGGGTTCTAACCTGTTGCAT (site GACTCTCCTAA)”, the figure is 0.00987; as for “GACTCTCCTTGGGTTCTAACCTGTTGCAT (site GACTCTCCTAC)”, 1.45.
Then “GACTCTCCTTGGGTTCTAACCTGTTGCAT (site GACTCTCCTAG)”, with 0.186; and “GACTCTCCTTGGGTTCTAACCTGTTGCAT (site GACTCTCCTAT)”, with 0.387; and “GACTCTCCTTGGGTTCTAACCTGTTGCGT (site GACTCTCCTAA)”, with 0.103.
On to “GACTCTCCTTGGGTTCTAACCTGTTGCGT (site GACTCTCCTAC)”, for which the “recombinant barcode read abundance (log10)” value amounted to 1.75.
As for “GACTCTCCTTGGGTTCTAACCTGTTGCGT (site GACTCTCCTAG)”, the figure is 0; as for “GACTCTCCTTGGGTTCTAACCTGTTGCGT (site GACTCTCCTAT)”, 0.321.
Then “GACTGCCCTTGGGTTCTAACCTGTTGCCT (site GACTGCCCTAG)”, with 0.166; and “GACTGCCCTTGGGTTCTAACCTGTTGCCT (site GCCTGCCCTAG)”, with 0.164; and “GACTGCCCTTGGGTTCTAACCTGTTGCCT (site GGCTGCCCTAG)”, with 0.0269.
Then “GACTGCCCTTGGGTTCTAACCTGTTGCCT (site GTCTGCCCTAG)”, with 0.129; and “GACTGGCCTTGGGTTCTAACCTGTTGCTT (site GACTGGCCTAA)”, with 0.389.
On to “GACTGGCCTTGGGTTCTAACCTGTTGCTT (site GACTGGGCTCA)”, for which the “recombinant barcode read abundance (log10)” value is 0.154.
As for “GACTTGACTTGGGTTCTAACCTGTTGCCT (site GACTTGACTAG)”, the figure is 1.13; as for “GACTTGACTTGGGTTCTAACCTGTTGCCT (site GACTTGCCTAG)”, 0.0736; as for “GACTTGACTTGGGTTCTAACCTGTTGCCT (site GACTTGGCTAG)”, 0.171.
Take “GACTTGACTTGGGTTCTAACCTGTTGCCT (site GACTTGTCTAG)”: the “recombinant barcode read abundance (log10)” value stood at 0.0657.
Consider “GACTTGTCTTGGGTTCTAACCTGTTGCCT (site GACTTGACTAG)”, for which the “recombinant barcode read abundance (log10)” value was determined as 0.0686.
“GACTTGTCTTGGGTTCTAACCTGTTGCCT (site GACTTGCCTAG)”: the “recombinant barcode read abundance (log10)” value is 0.0458.
Then “GACTTGTCTTGGGTTCTAACCTGTTGCCT (site GACTTGGCTAG)”, with 0.0443; and “GACTTGTCTTGGGTTCTAACCTGTTGCCT (site GACTTGTCTAG)”, with 1.41.
As for “GACTTTCCTTGGGTTCTAACCTGTTGCAT (site GACTTACCTAT)”, the figure is 0.01.
Then “GACTTTCCTTGGGTTCTAACCTGTTGCAT (site GACTTCCCTAT)”, with 0.272; and “GACTTTCCTTGGGTTCTAACCTGTTGCAT (site GACTTGCCTAT)”, with 0.0607.
For the sequence “GACTTTCCTTGGGTTCTAACCTGTTGCAT (site GACTTTCCTAT)”, the “recombinant barcode read abundance (log10)” value is 0.101.
On to “GAGAACACTTGGGTTCTAACCTGTTGCCT (site AAGAACACTAG)”, for which the “recombinant barcode read abundance (log10)” value is 1.09.
Then “GAGAACACTTGGGTTCTAACCTGTTGCCT (site CAGAACACTAG)”, with 0.439; and “GAGAACACTTGGGTTCTAACCTGTTGCCT (site GAGAACACTAG)”, with 2.01; and “GAGAACACTTGGGTTCTAACCTGTTGCCT (site TAGAACACTAG)”, with 0.852.
As for “GAGAAGCCTTGGGTTCTAACCTGTTGCCT (site AAGAAGCCTAG)”, the “recombinant barcode read abundance (log10)” value was determined as 1.17.
As for “GAGAAGCCTTGGGTTCTAACCTGTTGCCT (site CAGAAGCCTAG)”, the figure is 0.409; as for “GAGAAGCCTTGGGTTCTAACCTGTTGCCT (site GAGAAGCCTAG)”, 2.12.
As for “GAGAAGCCTTGGGTTCTAACCTGTTGCCT (site TAGAAGCCTAG)”, the figure is 0.639; as for “GAGAGAGCTTGGGTTCTAACCTGTTGCAT (site GAGAGAGCTAT)”, 1.41.
For the sequence “GAGAGAGCTTGGGTTCTAACCTGTTGCAT (site GAGCGAGCTAT)”, the “recombinant barcode read abundance (log10)” value turned out to be 0.193.
Then “GAGAGAGCTTGGGTTCTAACCTGTTGCAT (site GAGGGAGCTAT)”, with 0.0621; and “GAGAGAGCTTGGGTTCTAACCTGTTGCAT (site GAGTGAGCTAT)”, with 0.14; and “GAGAGGTCTTGGGTTCTAACCTGTTGCCT (site GAGAGGTCTAA)”, with 0.298.
Then “GAGAGGTCTTGGGTTCTAACCTGTTGCCT (site GAGAGGTCTAC)”, with 0.0681; and “GAGAGGTCTTGGGTTCTAACCTGTTGCCT (site GAGAGGTCTAG)”, with 1.56; and “GAGAGGTCTTGGGTTCTAACCTGTTGCCT (site GAGAGGTCTAT)”, with 0.203.
As for “GAGATGTCTTGGGTTCTAACCTGTTGCCT (site GAGATGTCTAG)”, the figure is 2.43; as for “GAGATGTCTTGGGTTCTAACCTGTTGCCT (site GCGATGTCTAG)”, 0.147.
As for “GAGATGTCTTGGGTTCTAACCTGTTGCCT (site GGGATGTCTAG)”, the “recombinant barcode read abundance (log10)” value turned out to be 0.266.
Then “GAGATGTCTTGGGTTCTAACCTGTTGCCT (site GTGATGTCTAG)”, with 0.577; and “GAGCACCCTTGGGTTCTAACCTGTTGCCA (site GAGCACCCTTG)”, with 1.77; and “GAGCACCCTTGGGTTCTAACCTGTTGCCA (site GAGCTCACTTG)”, with 0.0464.
Consider “GAGCAGTCTTGGGTTCTAACCTGTTGCCT (site GAGAAGTCTAG)”, for which the “recombinant barcode read abundance (log10)” value is 0.
As for “GAGCAGTCTTGGGTTCTAACCTGTTGCCT (site GAGCAGTCTAG)”, the figure is 2.4; as for “GAGCAGTCTTGGGTTCTAACCTGTTGCCT (site GAGGAGTCTAG)”, 0.117.
Then “GAGCAGTCTTGGGTTCTAACCTGTTGCCT (site GAGTAGTCTAG)”, with 0.214; and “GAGCCACCTTGGGTTCTAACCTGTTGCTG (site GAGCCACCTCA)”, with 1.58; and “GAGCCACCTTGGGTTCTAACCTGTTGCTG (site GAGCCGCCTCG)”, with 0.104.
As for “GAGCCGACTTGGGTTCTAACCTGTTGCAG (site GAGCCGACTCT)”, the figure is 2.25; as for “GAGCCGACTTGGGTTCTAACCTGTTGCAG (site TAGCCGGCTCT)”, 0.0779; as for “GAGCCGACTTGGGTTCTAACCTGTTGCCT (site GAGCAGACTAG)”, 0.288.
For “GAGCCGACTTGGGTTCTAACCTGTTGCCT (site GAGCCGACTAG)”, the “recombinant barcode read abundance (log10)” value was 1.56.
As for “GAGCCGACTTGGGTTCTAACCTGTTGCCT (site GAGCGGACTAG)”, the figure is 0.274; as for “GAGCCGACTTGGGTTCTAACCTGTTGCCT (site GAGCTGACTAG)”, 0.0365.
As for “GAGCCGCCTTGGGTTCTAACCTGTTGCAT (site GAGCCGCCTAT)”, the figure is 1.48.
“GAGCCGCCTTGGGTTCTAACCTGTTGCAT (site GGGACGCCTAT)”: the “recombinant barcode read abundance (log10)” value was determined as 0.0756.
Then “GAGCCGCCTTGGGTTCTAACCTGTTGCCG (site GAGCCACCTCA)”, with 0.118.
Then “GAGCCGCCTTGGGTTCTAACCTGTTGCCG (site GAGCCGCCTCG)”, with 1.04; and “GAGCCTACTTGGGTTCTAACCTGTTGCCT (site GAACCTACTCG)”, with 0.0224.
Then “GAGCCTACTTGGGTTCTAACCTGTTGCCT (site GAGCCTACTAG)”, with 1.29.
In the case of “GAGCCTACTTGGGTTCTAACCTGTTGCTA (site AAGCCTACTTA)”, the “recombinant barcode read abundance (log10)” value came to 0.25.
As for “GAGCCTACTTGGGTTCTAACCTGTTGCTA (site GAGCCTACTTA)”, the figure is 1.02; as for “GAGCGAGCTTGGGTTCTAACCTGTTGCTA (site GAGCGAGCTTA)”, 1.31; as for “GAGCGAGCTTGGGTTCTAACCTGTTGCTA (site GAGCGGACTTA)”, 0.267.
As for “GAGCGCACTTGGGTTCTAACCTGTTGCGG (site GAGCGCACTCC)”, the figure is 2.13.
“GAGCGCACTTGGGTTCTAACCTGTTGCGG (site GAGCGCACTCT)”: the “recombinant barcode read abundance (log10)” value was found to be 1.51.
As for “GAGCGCTCTTGGGTTCTAACCTGTTGCTA (site GAGCGCTCTAA)”, the figure is 0.167; as for “GAGCGCTCTTGGGTTCTAACCTGTTGCTA (site GAGCGCTCTCA)”, 0.223.
As for “GAGCGCTCTTGGGTTCTAACCTGTTGCTA (site GAGCGCTCTGA)”, the figure is 0.12; as for “GAGCGCTCTTGGGTTCTAACCTGTTGCTA (site GAGCGCTCTTA)”, 0.636.
